Measurements reported in patent US20160058304A1, “SYSTEM AND METHOD FOR VESSEL ARCHITECTURAL IMAGING” (priority 2013, published 2016).

Tests used:
[1] = test system: recurrent glioblastomas; assay: Phase II clinical trial of cediranib in recurrent glioblastoma, retrospective VAI (MRI) analysis; format: in vivo, human
Text: The study was approved by the institutional review board and informed consent was obtained from all subjects. Subject data included 13 females and 17 males diagnosed with a recurrent glioblastoma, average age 52 years, range 20-78 years. After study termination, nine subjects received one subsequent cycle of salvage chemotherapy, eight subjects received two cycles, one subject received three cycles, two subjects had undisclosed information on salvage chemotherapy and one subject received stereotactic radiosurgery.
Baseline MRI examinations were acquired prior to therapy onset (days −5 and −1), and then repeated on days 1, 28, 56 and 112 after cediranib (AstraZeneca Pharmaceuticals) anti-angiogenic therapy onset or until disease progression according to the Macdonald criteria. All imaging were performed on a 3 Tesla Magnetom Trio MRI system (Siemens Medical Solutions) as follows:
4. Dynamic susceptibility contrast (DSC) perfusion images. Axial dual-echo echo-planar images with repetition-time 1.33 s, echo-times 34 ms and 103 ms, slice-thickness 5 mm, inter-slice distance 2.5 mm, in-plane resolution 1.70:1.70 mm, matrix size 128:128, 10 slices and 120 volumes. After approximately 85 s of imaging, a 0.2 mmol kg−1 dose of Gd-DTPA was injected at 5 cc s−1.
We obtained relaxation rate curves for VAI analysis, perfusion values, blood volumes and mean transit times using established tracer kinetic models on the DSC images, corrected for contrast agent leakage (from blood-brain-barrier breakdown or resection) and fitted to a gammavariate curve for better visualization of vessel vortex effects. It has been speculated that contrast agent leakage is the reason for the clockwise vortex effect. […] Here, the pre-dose of Gd-DTPA during DCE imaging saturated potential leaky tumor tissue in the DSC images thereby minimizing the influence of leakage-induced T1-shortening effects. Relaxation rate curves not suited for analysis, conveying highly fluctuating time-courses from partial volume effects, voxel shifts and physiological pulsations were excluded from further analysis. Across all 30 subjects, an average of 78.21 percent±12.78 percent (standard deviation) of all tumor voxels met the inclusion criteria. To account for potential global systemic effects from hypertension, tumor relaxation rate curves were scaled with corresponding slice-specific mean, normal-tissue reference curves. In all figures showing vessel vortex curves, the tails of the vortex curves have been cut short to better visualize vortex direction. VAI analysis was performed using custom-made software in Matlab and traditional MRI was analyzed in nordicICE (NordicNeuroLab AS).
A subject was assumed to have an increase (decrease) in voxels with a clockwise vortex direction if the clockwise- to counter-clockwise ratio was higher (lower) than the 95 percent confidence interval of the population arithmetic mean for two consecutive imaging time points. […] Differences in VAI parameters during therapy were assessed using pairwise Wilcoxons Signed Rank test. Differences in tumor volumes, vessel caliber, permeability, perfusion and mean transit times were assessed using Mann-Whitney tests. Associations between changes in vessel vortex direction ratios and progression-free survival and overall survival were assessed using multinomial logistic regression, Kaplan-Meier survival analysis and Cox regression after adjustments for age, extent of resection, neurological performance, salvage chemotherapy and stereotactic radiosurgery after study termination as well as changes in permeability (Ktrans), T1-weighted contrast-enhanced tumor volume and T2-weighted FLAIR tumor volume prior to, and during, anti-angiogenic therapy. For all tests, P=0.05 was considered significant (with Holm-Bonferroni correction for multiple comparisons) and pixel values below a 5 percent percentile and above a 95 percent percentile were removed prior to analysis to reduce the influence of outliers. […]

[2] = test system: recurrent glioblastomas; conditions: background statement on cediranib trial; cited from earlier work

## COc1cc2c(Oc3ccc4[nH]c(C)cc4c3F)ncnc2cc1OCCCN1CCCC1 [cediranib]
[1]; 30 subjects collectively, pair-wise Wilcoxons Signed Ranks test P<0.05
  Relative number of image voxels with a clockwise vortex direction in the tumor after therapy onset: significant increase
[1]; non-responders = relative decrease in image voxels with clockwise vortex direction, recurrent glioblastoma
  Median overall survival, nonresponders: 146 days
[1]; non-responders with stable or reduced perfusion, P<0.001
  Median overall survival, non-responding patients: 169 days
[1]; responders = relative increase in image voxels with clockwise vortex direction at two consecutive imaging time points, recurrent glioblastoma
  Median overall survival, responding subjects: 341 days
[1]; responders by increased perfusion vs non-responders
  Longer survival of responding vs non-responding patients: approximately 6 months
[1]; responders by vascular normalization compared to non-responders, P<0.05
  Shunt index values at days 1 and 28: reduced
[1]; responders identified by increased perfusion (vascular normalization), P<0.001
  Median overall survival, responding patients: 348 days
[1]; responders vs non-responders, Mann-Whitney P<0.05
  Contrast enhanced and FLAIR tumor volumes at day 28: significant reductions
[1]; responding subjects, P<0.01
  Whole-tumor vessel calibers compared to pre-treatment: significant reductions
[2]
  Longer survival of patients whose tumor perfusion increased during treatment: approximately 6 months
